In US6723897B2, “Methods for controlling gibberellin levels” (Monsanto Technology, LLC, priority 1998, dated 2004):

What was measured:
[1] = system: R1 lines from pMON29220 (P-ICL/canola antisense CPS); assay: Emergence of R1 canola seed (pMON29220) with exogenous GA3; format: in vivo, Brassica napus; conditions: GA3 10^−5 M to the seed or soil; lines with 2 day delay in emergence
Description: Seeds are produced from plants transformed with plasmid pMON29220 (P-ICL/canola antisense CPS). These are planted and analyzed for germination phenotype. A 2 day delay in emergence is observed for 58% of the R1 lines tested from pMON29220.

[2] = system: pMON29801 soybean lines 719 and 724; assay: GA3 soil drench, emergence and shoot length of FMV/asCPScc soybean; format: in vivo, Glycine max; conditions: for Plant height (cm): +3 × 10^−6 M GA3 soil drench, 7 days after planting
Description: (§1) Thirty-five soybean plants are produced by transformation with pMON29801 (FIG. 7) containing the antisense CPS conserved core (asCPScc) gene driven by constitutive FMV promoter. The seed (R1) from the initial R0 transgenic lines is collected. R1 seeds are sown in 4-inch pots filled with commercial potting soil (Metromix 350) that is saturated with water or GA3 at a rate of either 3×10^−6 or 10^−5 M. Typically, 20 seeds are sown in 10 pots for each treatment, except where the seed supply is limiting. Pots are incubated in a greenhouse routinely used for soybean growth. Emergence is scored versus days after planting (DAP). Two soybean lines, 724 and 720, show a delayed emergence phenotype. Line 724 emergence is 1 to 2 days later than the control.
The timing of emergence and plant stature at for transgenic (plasmid pMON29801, FMV/asCPScc) soybean line 724 is rescued by sowing seeds in soil saturated with 3×10^−6 M GA3. At 7 days after planting (DAP), the GA3 treatment to the seeds rescued plant stature to within 10% of the A3237 control. As an additional control, soybean (A3237) seeds are coated with different concentrations of a commercial formulation of GA3 (Release®) blended with talc and sown in sand saturated with 3 mg/L ancymidol and grown in a greenhouse. Plant height is measured at 6 DAP. […] This rate is equivalent to approximately 62 mg GA3 per acre (assuming 140,000 seeds/acre).
(§2) GA3 added to plasmid pMON29801 transgenic soybean seeds as a soil drench also restores soybean emergence timing and plant height during early seedling growth. Rates of GA3 between 1×10^−6 and 1×10^−5 M, when added to soil either immediately before planting or immediately after, restores normal shoot length in emerged Line #719 seedlings (Table 5).

A3237 soybean = assay: GA3 soil drench, shoot length of control soybean; format: in vivo, Glycine max; conditions: line A3237; +3 × 10^−6 M GA3 soil drench; 7 days after planting
Description: as §1, §2

[3] = system: asCPScc soybean lines 696, 719, 720 and 724; assay: Seed yield of asCPScc soybean lines treated with GA3; format: in vivo, Glycine max
Method: One hundred nine soybean plants from four […] lines (696, 719, 720 and 724) identified with GA-deficient phenotypes are grown to maturity and the seed harvested. Three of the lines (696, 719 and 720) required weekly spraying with GA3 to restore normal vegetative growth. […] Seed yield, seed weight per seed, pod number and seeds/pod data are collected for each plant. Data is collected in three groups for each line: plants that are wild-type; plants that are dwarfs and received no exogenous GA; and plants that are treated with exogenous GA3. […] Line 724 dwarf plants produces equivalent yields to the wild-type plants within this line without any external spraying. […] Line 724 has no reduction in seed weight in dwarfs without supplying exogenous GA.

[4] = system: pMON34439 soybean lines 46 and 202; assay: GA3 soil drench plus foliar spray on AX5/antisense CPScc seedlings; format: in vivo, Glycine max; conditions: 1×10^−6 M GA3 soil drench before planting plus foliar 1×10^−5 M GA3 spray
Description: Two out of 59 transgenic soybean lines transformed with construct pMON34439 (AX5 promoter/antisense CPScc, FIG. 26), lines 46 and 202, show a reduced stature during early seedling growth and then resume normal vegetative growth. Twenty seeds of each line are sown in Metromix 350 soil in 3″ plastic pots in the greenhouse, approximately 40% of the seedlings are reduced in stature for line 46 and 25, 35% for line 202.

[5] = system: ancymidol-treated soybean; assay: GA3 soil drench restoring seedling height in ancymidol-treated soybean; format: in vivo, Glycine max
Description: For example, in side-by-side comparisons using soybean, the same dose of GA3 gives substantial differences in hypocotyl elongation depending on the method of application. The relative sensitivity can be: soil drench>hilum treatment>seed imbibition). Also, the dose of GA3, applied as a soil drench, that is needed to fully restore normal seedling height in ancymidol-treated soybean increases with time after planting (10^−7M at 4 DAP; greater than 10^−5 M at 11 DAP).

[6] = Concentration of 14C-GA3 in germinating soybean seedlings after seed treatment; format: in vivo, Glycine max
Description: Application of ^14C-GA3 to Asgrow 3237 soybeans as a seed treatment via the hilum at a rate (5-20 ppm) within the range effective in rescuing the hypocotyl of dwarf, GA-deficient plants causes a substantial oversupply in the level of GA3 compared to the levels of endogenous bioactive gibberellins GA1 and GA4 in germinating soybean seeds (FIG. 39). The data upon which FIG. 39 is based are taken from the experiment described below in the section entitled “Determination of half-lives and distribution of ^14C-labeled GA compounds in planta”. More particularly, the data in FIG. 39 are taken from the experiment in which ^14C-GA3 is applied to the hilum at 20 ppm.
The concentration of GA3 in the seedling axis appeared to be directly proportional to the amount of GA3 applied to the seed.
The details are as follows.

[7] = Half-lives of 14C-labelled GA compounds in soil; conditions: spinks soil, aerobic, 25° C., darkness; read-out: Half-life (days) in soil (converted)
Method: Metabolic studies in soil are conducted with ^14C-labelled GA compounds in order to investigate the route and rate of compound degradation in soil under aerobic conditions. ^14C-labelled GA compounds are obtained from Lew Mander (Australian National University). The ^14C-labelled compounds dissolved in 0.2-2 ml water:ethanol, 80:20, v/v, are applied to 50-60 gm portions of spinks soil (USDA classification Loamy Sand: 82% sand, 14% silt, and 4% clay) in 250 ml centrifuge bottles at a rate of 0.1-0.2 ppm (6-12 μg; approximately 1,200,000 dpm per soil sample. The soil samples are placed in a glass dessicator which served as a container for all soil bottles. The glass dessicator is connected to three separate trapping solutions in series, each containing 20 ml of ethylene glycol:ethanolamine, 2:1, v/v. Air is pulled into the glass dessicator and through the trapping solutions by house vacuum. The trapping solutions are used to collect ^14C-volatiles and ^14C-CO2. Soil samples are incubated for eight days at 25° C. in darkness. For most experiments, duplicate soil samples are harvested 0, 6, 12, 24, 46, 72, 120, and 192 hours after initial treatment. Soil samples are extracted twice with 100 ml of water:methanol, 20:80, v/v, and the combined extracts are analyzed by HPLC under the same conditions as described for the determination of half-lives of GA compounds in planta, above.

C=C1C[C@]23C[C@@]1(O)CC[C@H]2[C@@]12C=C[C@H](O)[C@@](C)(C(=O)O1)[C@H]2[C@@H]3C(=O)O [GA3, gibberellic acid]
emergence delay [1]: rescuing the emergence delay | Plant height (cm) ([2]; R1 line 719): 11.3 (1.0) cm | Plant height (cm) ([2]; R1 line 724): 10.9 (0.9) cm | plant stature, difference from the A3237 control ([2]; line 724, soil saturated with 3×10^−6 M GA3, 7 DAP): ≤ 10% | Plant height (cm) (A3237 soybean): 14.9 (0.3) cm | reduction of seed weight per seed ([3]; dwarf plants, GA treatments): nearly completely rescued | seed yield restored, % of the yield of the wild-types ([3]; dwarfs treated continuously with GA3, lines 696 and 719): 70% | normal growth rate of seedlings [4]: at least partially restored | dose of GA3 needed to fully restore normal seedling height ([5]; 4 DAP): 10^−7 M | dose of GA3 needed to fully restore normal seedling height ([5]; 11 DAP): greater than 10^−5 M | GA3 in seedling axis relative to combined endogenous bioactive GAs in untreated tissue ([6]; 20 ppm, 1 DAP): approximately 100 times higher | concentration at 1 day after planting ([6]; Asgrow 3237, soybean (Glycine max), seedling axis, other: seed treatment applied to the hilum, ^14C-GA3 applied to the hilum at 20 ppm, one day after planting, read-out: calculated concentration of GA3 delivered to the seedling axis): 4.31 µM | half-life [7]: 0.5 days
